Source: patent publication US9365604B2, “Oligomer-nucleoside phosphate conjugates” (NEKTAR THERAPEUTICS, priority 2007, dated 2016)
Where two headings read alike, the source gives them in different places.

Legend:
Hop62 = assay: Sulforhodamine B (SRB) growth inhibition assay; assay type: cell-based, Human; conditions: for GI50: SRB assay
Experimental: (§1) In Vitro Screening of PEG-Gemcitabine Monophosphate in Selected Human Cancer Cell Lines
(§2) The aim was to determine the GI50 values for PEG-floxuridine conjugates against a panel of cell lines, and based on previous data from Xenograft studies. […] The test articles were solubilized in dimethylsulfoxide and were tested at four different molar (M) concentrations; 10^−4, 10^−5, 10^−6, M. GI50 (the concentration needed to reduce the growth of treated cells to half that of untreated control cells) was calculated for each condition ([(Ti−Tz)/(C-Tz)]×100=50, where Ti, Tz, and C refer to absorbance values obtained from each tested concentration, time zero, and control treatment, respectively).
as §2, with “The objective” for “The aim”, “the IC50” for “the GI50”, “for PEG-gemcitabine” for “for PEG-floxuridine”, “in dimethyl sulfoxide” for “in dimethylsulfoxide”, “10^−6, 10^−7” for “10^−6,”, “condition ([(Ti−Tz)/(C−Tz)]×100=50,” for “condition ([(Ti−Tz)/(C-Tz)]×100=50,”

COLO205 = assay: Sulforhodamine B (SRB) growth inhibition assay; assay type: cell-based, Human; conditions: for GI50: COLO205, SRB assay
Experimental: as §1, §2
as §2, with “The objective” for “The aim”, “the IC50” for “the GI50”, “for PEG-gemcitabine” for “for PEG-floxuridine”, “in dimethyl sulfoxide” for “in dimethylsulfoxide”, “10^−6, 10^−7” for “10^−6,”, “condition ([(Ti−Tz)/(C−Tz)]×100=50,” for “condition ([(Ti−Tz)/(C-Tz)]×100=50,”

HCT15 = assay: Sulforhodamine B (SRB) growth inhibition assay; assay type: cell-based, Human; conditions: for GI50: SRB assay
Experimental: as §1, §2
as §2, with “The objective” for “The aim”, “the IC50” for “the GI50”, “for PEG-gemcitabine” for “for PEG-floxuridine”, “in dimethyl sulfoxide” for “in dimethylsulfoxide”, “10^−6, 10^−7” for “10^−6,”, “condition ([(Ti−Tz)/(C−Tz)]×100=50,” for “condition ([(Ti−Tz)/(C-Tz)]×100=50,”

HT29 = assay: Sulforhodamine B (SRB) growth inhibition assay; assay type: cell-based, Human; conditions: for GI50: SRB assay
Experimental: as §1, §2
as §2, with “The objective” for “The aim”, “the IC50” for “the GI50”, “for PEG-gemcitabine” for “for PEG-floxuridine”, “in dimethyl sulfoxide” for “in dimethylsulfoxide”, “10^−6, 10^−7” for “10^−6,”, “condition ([(Ti−Tz)/(C−Tz)]×100=50,” for “condition ([(Ti−Tz)/(C-Tz)]×100=50,”

A2780 = assay: Sulforhodamine B (SRB) growth inhibition assay; assay type: cell-based, Human; conditions: for GI50: SRB assay
Experimental: as §1, §2
as §2, with “The objective” for “The aim”, “the IC50” for “the GI50”, “for PEG-gemcitabine” for “for PEG-floxuridine”, “in dimethyl sulfoxide” for “in dimethylsulfoxide”, “10^−6, 10^−7” for “10^−6,”, “condition ([(Ti−Tz)/(C−Tz)]×100=50,” for “condition ([(Ti−Tz)/(C-Tz)]×100=50,”

MCF7 = assay: Sulforhodamine B (SRB) growth inhibition assay; assay type: cell-based, Human; conditions: for GI50: SRB assay
Experimental: as §1, §2
as §2, with “The objective” for “The aim”, “the IC50” for “the GI50”, “for PEG-gemcitabine” for “for PEG-floxuridine”, “in dimethyl sulfoxide” for “in dimethylsulfoxide”, “10^−6, 10^−7” for “10^−6,”, “condition ([(Ti−Tz)/(C−Tz)]×100=50,” for “condition ([(Ti−Tz)/(C-Tz)]×100=50,”

Caco-2 cells = assay: Bi-directional permeability in Caco-2 cells
Text: Bi-Directional Permeability of PEG-Floxuridine Conjugates in Caco-2 and MDCK Cells

HCT-116 = assay: In vitro cytotoxicity assay (CellTiter-Glo); assay type: cell-based
Experimental: (§3) The objective of these studies were to determine the IC50 values for PEG-floxuridine conjugates against floxuridine-resistant cell lines based on data from previous Xenograft studies. The cells were exposed for 72 h, and cell viability assessed by using the CellTiter-Glo assay.
(§4) The objective of these studies was to determine the IC50 values for PEG-gemcitabine conjugates against gemcitabine-resistant cell lines based on data from previous Xenograft studies. The cells were exposed for 72 h, and cell viability assessed by using the CellTiter-Glo assay.

HT-29 = assay: In vitro cytotoxicity assay (CellTiter-Glo); assay type: cell-based
Experimental: as §3, §4

MIA PaCa-2 = assay: In vitro cytotoxicity assay (CellTiter-Glo); assay type: cell-based
Experimental: as §3, §4

DU145 = assay: Sulforhodamine B (SRB) growth inhibition assay; assay type: cell-based, Human; conditions: SRB assay
Experimental: as §2
as §2, with “The objective” for “The aim”, “the IC50” for “the GI50”, “for PEG-gemcitabine” for “for PEG-floxuridine”, “in dimethyl sulfoxide” for “in dimethylsulfoxide”, “10^−6, 10^−7” for “10^−6,”, “condition ([(Ti−Tz)/(C−Tz)]×100=50,” for “condition ([(Ti−Tz)/(C-Tz)]×100=50,”

CCRF-CEM = assay: In vitro cytotoxicity assay (CellTiter-Glo); assay type: cell-based
Experimental: as §4

K-562 = assay: In vitro cytotoxicity assay (CellTiter-Glo); assay type: cell-based
Experimental: as §4

NCI-H23 = assay: In vitro cytotoxicity assay (CellTiter-Glo); assay type: cell-based
Experimental: as §4

DLD-1 = assay: In vitro cytotoxicity assay (CellTiter-Glo); assay type: cell-based
Experimental: as §4

RL = assay: In vitro cytotoxicity assay (CellTiter-Glo); assay type: cell-based
Experimental: as §4

SW-620 = assay: In vitro cytotoxicity assay (CellTiter-Glo); assay type: cell-based
Experimental: as §4

NCI-H460 = assay: In vitro cytotoxicity assay (CellTiter-Glo); assay type: cell-based
Experimental: as §4

HL-60 = assay: In vitro cytotoxicity assay (CellTiter-Glo); assay type: cell-based
Experimental: as §4

NCI-H522 = assay: In vitro cytotoxicity assay (CellTiter-Glo); assay type: cell-based
Experimental: as §4

AS283 = assay: In vitro cytotoxicity assay (CellTiter-Glo); assay type: cell-based
Experimental: as §4

NCI/ADR-RES = assay: Sulforhodamine B (SRB) growth inhibition assay; assay type: cell-based, Human; conditions: cells exposed for 24 h, read-out: GI50 values (μM) NCI/ADR-RES
Experimental: as §1
(§5) The aim was to determine the GI50 values for PEG-floxuridine conjugates against a panel of cell lines, and based on previous data from Xenograft studies. The cells were exposed for 24 h, and cell viability assessed by using the Sulphorhodamine (SRB) assay. The test articles were solubilized in dimethylsulfoxide and were tested at four different molar (M) concentrations; 10^−4, 10^−5, 10^−6, M. GI50 (the concentration needed to reduce the growth of treated cells to half that of untreated control cells) was calculated for each condition ([(Ti−Tz)/(C-Tz)]×100=50, where Ti, Tz, and C refer to absorbance values obtained from each tested concentration, time zero, and control treatment, respectively).
as §5, with “The objective” for “The aim”, “the IC50” for “the GI50”, “for PEG-gemcitabine” for “for PEG-floxuridine”, “in dimethyl sulfoxide” for “in dimethylsulfoxide”, “10^−6, 10^−7” for “10^−6,”, “condition ([(Ti−Tz)/(C−Tz)]×100=50,” for “condition ([(Ti−Tz)/(C-Tz)]×100=50,”

[1] = GI50 of conjugate vs gemcitabine

COCCOCCOCCOP(=O)(O)OC[C@H]1O[C@@H](n2ccc(N)nc2=O)C(F)(F)[C@@H]1O.Cl [Gemcitabine Mono (mPEG3), 5′-gemcitabine methoxy tri(ethylene glycol) phosphate hydrochloride]
ratio vs gem (GI50) Hop62 (Hop62; [1]): 1 | GI50 (Hop62; 48 h drug exposure, read-out: GI50 (molar concentration) in Cell Line Hop62): 2.6 µM | GI50 (Hop62; cells exposed for 24 h, read-out: GI50 values (μM) Hop62): 2.6 µM | GI50 (COLO205; 48 h drug exposure, read-out: GI50 (molar concentration) in Cell Line COLO205): 0.16 µM | GI50 (COLO205; cells exposed for 24 h, read-out: GI50 values (μM) COLO205): 0.16 µM | ratio vs gem (GI50) COLO-205 (COLO205; COLO-205, GI50 of conjugate vs gemcitabine): 1 | ratio vs gem (GI50) HCT15 (HCT15; [1]): 14 | GI50 (HCT15; 48 h drug exposure, read-out: GI50 (molar concentration) in Cell Line HCT15): 2.2 µM | GI50 (HCT15; cells exposed for 24 h, read-out: GI50 values (μM) HCT15): 2.2 µM | ratio vs gem (GI50) HT29 (HT29; [1]): 13 | GI50 (HT29; 48 h drug exposure, read-out: GI50 (molar concentration) in Cell Line HT29): 28 µM | GI50 (HT29; cells exposed for 24 h, read-out: GI50 values (μM) HT29): 28 µM | ratio vs gem (GI50) A2780 (A2780; [1]): 2 | GI50 (A2780; 48 h drug exposure, read-out: GI50 (molar concentration) in Cell Line A2780): 0.15 µM | GI50 (A2780; cells exposed for 24 h, read-out: GI50 values (μM) A2780): 0.15 µM | ratio vs gem (GI50) MCF7 (MCF7; [1]): 2 | GI50 (MCF7; 48 h drug exposure, read-out: GI50 (molar concentration) in Cell Line MCF7): 0.16 µM | GI50 (MCF7; cells exposed for 24 h, read-out: GI50 values (μM) MCF7): 0.158 µM | Papp A -> B (Caco-2 cells): <0.06 10^−6 cm/s | Papp B -> A (Caco-2 cells): <0.08 10^−6 cm/s | Significant efflux (Caco-2 cells): No | percent recovery A -> B (Caco-2 cells): 78% | percent recovery B -> A (Caco-2 cells): 90% | Ratio vs gem (IC50) HCT-116 (HCT-116): 2 | IC50 (HCT-116; 72 h exposure, CellTiter-Glo): 2.9 nM | Ratio vs gem (IC50) HT-29 (HT-29): 7 | IC50 (HT-29; 72 h exposure, CellTiter-Glo): 755 nM | Ratio vs gem (IC50) MIA PaCa-2 (MIA PaCa-2): 3 | IC50 (MIA PaCa-2; 72 h exposure, CellTiter-Glo): 76 nM | GI50 (DU145; 48 h drug exposure, read-out: GI50 (molar concentration) in Cell Line DU145): < 0.1 µM | GI50 (DU145; cells exposed for 24 h, read-out: GI50 values (μM) DU145): < 0.1 µM | Ratio vs gem (IC50) CCRF-CEM (CCRF-CEM): 1 | IC50 (CCRF-CEM; 72 h exposure, CellTiter-Glo): 6.5 nM | Ratio vs gem (IC50) K-562 (K-562): 1 | IC50 (K-562; 72 h exposure, CellTiter-Glo): 914 nM | Ratio vs gem (IC50) NCI-H23 (NCI-H23): 3 | IC50 (NCI-H23; 72 h exposure, CellTiter-Glo): 18 nM | Ratio vs gem (IC50) DLD-1 (DLD-1): 4 | IC50 (DLD-1; 72 h exposure, CellTiter-Glo): 93 nM | Ratio vs gem (IC50) RL (RL): 2 | IC50 (RL; 72 h exposure, CellTiter-Glo): 568 nM | Ratio vs gem (IC50) SW-620 (SW-620): 2 | IC50 (SW-620; 72 h exposure, CellTiter-Glo): 95 nM | Ratio vs gem (IC50) NCI-H460 (NCI-H460): 3 | IC50 (NCI-H460; 72 h exposure, CellTiter-Glo): 43 nM | Ratio vs gem (IC50) HL-60 (HL-60): 1 | IC50 (HL-60; 72 h exposure, CellTiter-Glo): 2 nM | Ratio vs gem (IC50) NCI-H522 (NCI-H522): 8 | IC50 (NCI-H522; 72 h exposure, CellTiter-Glo): 36 nM | Ratio vs gem (IC50) AS283 (AS283): 3 | IC50 (AS283; 72 h exposure, CellTiter-Glo): 408 nM | GI50 (NCI/ADR-RES): 1.7 µM
